Assay results from patent publication US11447445B2, “Diabetes and metabolic syndrome treatment with a novel dual modulator of soluble epoxide hydrolase and peroxisome proliferator-activated receptors” (priority 2015, dated 2022).
≈ marks a conversion by molar mass, not a printed value. Where two headings read alike, the source gives them in different places.

Experiments:
3T3-L1 fibroblasts = assay: Adipocyte differentiation of murine 3T3-L1 cells (Oil Red O staining); type: cell-based; conditions: 1c 1-10 μM; CIU 10 μM
Method: 3T3-L1 cells were subcultured in DMEM containing 10% newborn calf serum in a humidified atmosphere at 37° C., 5% CO2. […] Briefly, cells were seeded in 6-well plates (2.5×10^6/well). Differentiation was started at day 3 by addition of 1 μg/ml insulin, 0.25 dexamethasone and 0.5 mM isobutylmethylxanthine in DMEM supplemented with 10% fetal calf serum. At day 5 medium was replaced by medium containing only insulin for 2 more days. After this, cells were kept for lipid droplet accumulation in basal medium without additions until day 15.

[1] = tested on: human primary preadipocytes; assay: Adipocyte differentiation of human primary preadipocytes (Oil Red O staining); type: cell-based; conditions: 1c 1-10 μM; CIU 10 μM
Method: Human primary preadipocytes were obtained from stromal vascular fraction of subcutaneous fat from anonymous donors undergoing elective cosmetic surgery. Adipose tissue was digested by collagenase solution (0.3 U/ml in 1% BSA/PBS) for 45 min at 37° C. with constant shaking. Floating mature adipocytes were removed and the pellet containing the stromal vascular fraction was resuspended in erythrocyte lysis buffer. […] After 4 days the medium was changed to 3FC medium (QuickDiff medium without dexamethasone, IBMX and rosiglitazone). Adipocytes were cultured for additional 14 days before medium was changed to basal medium consisting of DMEM/Ham's F12 with biotin and panthotenate. This investigation conforms to the ethical principles outlined in the Declaration of Helsinki and was approved by the university ethics committee (Ethik-Kommission des Fachbereichs Medizin der Goethe-Universitat Frankfurt am Main). Total RNA was isolated using PeqGold RNAPure (Peqlab) according to manufacturer's instructions and was transcribed to cDNA using Maxima First Strand cDNA synthesis kit (Thermo Scientific), following manufacturer's instructions. Quantitative PCR was performed with iQ SYBR green Supermix (Bio-Rad) using a CFX96 (Bio-Rad) system. Expression was normalized to actin RNA.

recombinant human sEH = target: T1, recombinant human sEH (Homo sapiens, UniProt P34913); assay: biochemical
T1 sequence (P34913 1-555): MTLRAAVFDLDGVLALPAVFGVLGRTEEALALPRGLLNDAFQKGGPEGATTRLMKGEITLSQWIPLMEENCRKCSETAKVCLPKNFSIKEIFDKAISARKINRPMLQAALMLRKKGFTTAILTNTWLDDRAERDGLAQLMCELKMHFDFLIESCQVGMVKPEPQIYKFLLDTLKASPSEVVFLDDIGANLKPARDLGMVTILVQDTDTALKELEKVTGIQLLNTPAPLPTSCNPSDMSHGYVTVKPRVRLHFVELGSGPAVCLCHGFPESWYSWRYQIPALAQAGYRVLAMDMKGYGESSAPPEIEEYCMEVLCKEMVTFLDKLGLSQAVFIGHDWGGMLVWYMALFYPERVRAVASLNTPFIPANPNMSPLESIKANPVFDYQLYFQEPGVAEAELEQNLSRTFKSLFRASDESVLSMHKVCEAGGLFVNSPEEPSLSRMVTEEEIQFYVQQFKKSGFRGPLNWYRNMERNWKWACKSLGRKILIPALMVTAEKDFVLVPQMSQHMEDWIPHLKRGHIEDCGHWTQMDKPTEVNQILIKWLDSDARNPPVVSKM

PPARα = target: T2, PPARα (Homo sapiens, UniProt Q07869); type: cell-based
T2 construct: expressed in transfected cells; host or cells: COS-7

PPARδ = target: T3, PPARδ (Homo sapiens, UniProt Q03181); assay: PPAR transactivation assay in COS-7 cells (Gal4-hPPAR-LBD, luciferase); type: cell-based
T3 construct: expressed in transfected cells; host or cells: COS-7

[2] = after p.o. 30 mg/kg bw of 1b, all time points
Method: Blood was sampled 15 min, 30 min, 1 h, 2 h, 4 h and 8 h after test item application and only 8 h after vehicle application. Each drug treated mouse was sampled twice (0.25 and 0.5 h, 1 and 2 h, 4 and 8 h) via retro orbital puncture. Blood was collected in tubes containing lithium-heparin, stored on ice and subsequently centrifuged at 6000 rpm for 10 minutes at 4° C. (Heraeus biofuge fresco). The plasma was prepared within 45 min after sampling and kept at −20° C. until being assayed. For further kinetic and dynamic analysis the tissues (brain, liver, abdominal fat) were collected 30 min, 2h and 8 h post dose, after the second plasma sampling of each drug treated mouse. Tissue of the vehicle group was sampled only once, 8 h post dose. A volume of 40 μl acetonitrile containing the internal standard (300 ng/ml Diazepam) was added to 20 μl of mouse plasma sample, plasma calibration standard and plasma QC samples. Samples were vigorously shaken and centrifuged for 10 minutes at 6000 g and 20° C. The particle free supernatant was diluted 1:1 with water. An aliquot was transferred to 200 μl sampler vials and subsequently subjected to LC MS with an injection volume of 20 pl. The brain samples were homogenized in PBS (1+1, w/v) using the Precellys 24/Dual homogenizer. A volume of 20 μl of the brain homogenate was mixed (1+1 v/v/) with 20 μl mouse blank plasma. Then 80 μl acetonitrile containing the internal standard (300 ng/ml Diazepam) were added. Samples were vigorously shaken and centrifuged for 10 minutes at 6000 g and 20° C. The particle free supernatant was diluted 1:1 with water. An aliquot was transferred to 200 μl sampler vials and subsequently subjected to LC MS with an injection volume of 20 μl. Mass spectrometry was performed on a TSQ Quantum Discovery Max triple quadrupole mass spectrometer equipped with an electrospray (ESI) interface (Thermo Fisher Scientific, USA) connected to a PC running the standard software Xcalibur 2.0.7. […]

PPARγ = target: T4, PPARγ (Homo sapiens, UniProt P37231); assay: cell-based; type: cell-based; conditions: for EC50 PPARγ: i.a. = inactive; for activation at 10 µM: COS-7, read-out: PPARγ activation @10 μM, at 10 μM, compared to pioglitazone 1 μM
T4 construct: expressed in transfected cells; host or cells: COS-7
Method: COS-7 cells (PPAR) were grown in DMEM high glucose, supplemented with 10% fetal calf serum (FCS), 1% sodium pyruvate (SP) and 1% penicillin/streptomycin (PS) at 37° C. and 5% CO2. Used plasmids for PPAR transactivation assay are shown under supporting informations.
The day before transfection, COS-7 cells were seeded in 96-well plates with a density of 30,000 cells per well. Transient transfection was carried out using Lipofectamine LTX reagent (Invitrogen, Carlsbad, Calif., USA) according to the manufacturer's protocol with pFR-Luc (Stratagene), pRL-SV40 (Promega) and the Ga14-fusion receptor plasmids (pFA-CMV-hPPAR-LBD) of the respective PPAR subtype. 5 h after transfection, medium was changed to DMEM without phenol red and 10% FCS, supplemented with 1% SP, 1% PS and 1% L-glutamine, now additionally containing 0.1% DMSO and the respective test compound or 0.1% DMSO alone as untreated control. Each concentration was tested in triplicate wells and each experiment was repeated independently at least three times. Following overnight incubation with the test compounds, cells were assayed for luciferase activity using Dual-Glo™ Luciferase Assay System (Promega) according to the manufacturer's protocol. Luminescence was measured with an Infinite m200 luminometer (Tecan Deutschland GmbH). Each concentration of the compounds was tested in triplicate wells. Normalization for transfection efficacy and cell growth was done by division of the firefly luciferase data by renilla luciferase data resulting in relative light units. Activation factors were obtained by dividing by DMSO control. […] All compounds were evaluated by comparison of the achieved maximum effect to that of the reference compound (pioglitazone for PPARγ, GW7647 for PPARa, and L165041 for PPARS each with 1 μM). Data are expressed as mean±SE; n≥3.
The Gal4-fusion receptor plasmids pFA-CMV-PPARa-LBD, pFA-CMV-PPARS-LBD and pFA-CMV-PPARγ-LBD containing the hinge region and ligand binding domain (LBD) for each of the PPAR subtypes, respectively, were constructed by integrating cDNA fragments obtained from PCR amplification of human monocytes into the SmaI/XbaI cleavage site of the pFA-CMV vector (Stratagene, La Jolla, Calif., USA) and have already been published. […] Frame and sequence of the fusion receptors were verified by sequencing. pFR-Luc (Stratagene) was used as reporter plasmid and pRL-SV40 (Promega) for normalization of transfection efficacy and cell growth.

[3] = Water solubility approximation; type: physicochemical; conditions: PBS with 0.01% Polysorbate 20, aqueous with cosolvent or surfactant or cyclodextrin, kinetic from dmso stock; PBS pH 7.4, 0.01% Polysorbate 20, 1% DMSO; precipitation at 650 nm; read-out: w.s. (water solubility)
Method: PBS at pH 7.4 with 0.01% Polysorbate 20 (Tween) was combined with 1% of a DMSO solution of the inquired compound in a 96-well transparent flat bottom microtiter plate. Precipitation of the compound was measured at 650 nm with a Tecan Infinite 200 (Tecan Group Ltd, Mannedorf, Switzerland).

[4] = read-out: sEH IC50 / inhibitory potency (unit inferred)

T2 sequence (Q07869 239-466): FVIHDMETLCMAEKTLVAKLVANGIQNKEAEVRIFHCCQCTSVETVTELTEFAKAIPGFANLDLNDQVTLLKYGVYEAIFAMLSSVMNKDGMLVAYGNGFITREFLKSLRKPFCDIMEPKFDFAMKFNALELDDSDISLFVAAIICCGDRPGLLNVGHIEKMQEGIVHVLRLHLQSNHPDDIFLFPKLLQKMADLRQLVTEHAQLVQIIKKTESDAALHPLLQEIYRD
T4 sequence (P37231 238-503): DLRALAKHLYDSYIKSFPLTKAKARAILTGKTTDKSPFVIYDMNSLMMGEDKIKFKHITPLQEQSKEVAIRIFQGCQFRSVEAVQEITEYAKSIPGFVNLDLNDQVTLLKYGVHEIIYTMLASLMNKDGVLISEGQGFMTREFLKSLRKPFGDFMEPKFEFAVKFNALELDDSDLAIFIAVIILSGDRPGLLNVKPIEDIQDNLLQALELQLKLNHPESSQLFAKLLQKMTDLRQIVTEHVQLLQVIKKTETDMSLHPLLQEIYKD
T3 sequence (Q03181 211-439): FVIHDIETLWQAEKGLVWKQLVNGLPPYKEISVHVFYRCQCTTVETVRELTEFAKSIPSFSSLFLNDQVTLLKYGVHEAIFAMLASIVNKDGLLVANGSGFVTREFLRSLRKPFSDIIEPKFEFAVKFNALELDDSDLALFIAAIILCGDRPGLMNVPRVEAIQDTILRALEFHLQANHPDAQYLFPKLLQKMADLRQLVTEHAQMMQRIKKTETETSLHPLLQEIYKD

Structure (SMILES)	IC50 (recombinant human sEH; read-out: IC50 sEH (converted)) [nM]	EC50 PPARα (PPARα; i.a. = inactive)	EC50 PPARδ (PPARδ; i.a. = inactive)	EC50 PPARγ (PPARγ)	solubility [3] [µM]	activation at 10 µM (PPARγ) [%]	other results
O=C(Nc1ccc(I)cc1)NC1CCCCC1 [CIU, N-cyclohexyl-N′-iodophenyl urea, reference compound]	–	–	–	–	–	–	adipocyte differentiation (Oil-Red O) (3T3-L1 fibroblasts): able to start adipocyte differentiation; adipocyte differentiation (Oil-Red O) [1]: not able to start differentiation
CCOC(=O)C(CC)Cc1ccc(C(=O)NCc2ccccc2C(F)(F)F)cc1 (stereo not shown) [Compound 1b, Ethyl 2-ethyl 3-[4-(N-((2-trifluoromethyl)benzyl)benzamide)]propanoate]	44 ± 5	i.a.	i.a.	–	–	–	1b in plasma [2]: not detected
CCOC(=O)C(CC)Cc1ccc(C(=O)NCc2ccccc2Br)cc1 (stereo not shown) [Compound 5b, Ethyl 2-ethyl 3-[4-(N-((2-bromo)benzyl)benzamide)]propanoate]	–	n.t. i.a. i.a. n.t.	n.t. i.a. i.a. n.t.	i.a.	25 (≈ 10.5 µg/mL)	–	–
CON(C)C(=O)/C=C/c1ccc(C(=O)NCc2ccccc2C(F)(F)F)cc1 [Compound 20]	70 ± 20	i.a.	i.a.	i.a.	–	–	–
CON(C)C(=O)C1CC1c1ccc(C(=O)NCc2ccccc2C(F)(F)F)cc1 (stereo not shown) [Compound 21, N-Methoxy-N-methyl 3-[4-(N-((2-trifluoromethyl)benzyl)benzamide)]cyclopropanecarboxamide]	80 ± 4	i.a.	i.a.	–	–	30	sEH IC50 / inhibitory potency (unit not given) (recombinant human sEH): double-digit nanomolar range
O=C(O)c1ccc(-c2ccc(C(=O)NCc3ccccc3C(F)(F)F)cc2)cc1 [Compound 25]	170	–	–	–	5 (≈ 2 µg/mL)	~30	EC50 PPARα (PPARα): i.a.; EC50 PPARδ (PPARδ): i.a.
O=C(O)c1cccc(-c2ccc(C(=O)NCc3ccccc3C(F)(F)F)cc2)c1 [Compound 26]	–	–	–	–	–	~30	IC50 (recombinant human sEH; [4]): 1000 nM; EC50 PPARα (PPARα): i.a.; EC50 PPARδ (PPARδ): i.a.
N#Cc1ccc(C(=O)NCc2ccccc2C(F)(F)F)cc1 [Compound 27, 4-Cyano-N-(2-(trifluoromethyl)benzyl)benzamide]	–	remained unaffected	remained unaffected	remained unaffected	–	–	IC50 (recombinant human sEH; [4]): 64 nM
O=C(NCc1ccccc1C(F)(F)F)c1ccc(-c2nnn[nH]2)cc1 [Compound 28, [N-(2-(Trifluoromethyl)benzyl)benzamid]-4-(1H-tetrazole)]	5000	i.a.	i.a.	i.a.	500 (≈ 174 µg/mL)	–	–
